Test results as given in the supplement of paper PMC10307832.

Columns and labels:
Assay in all cases: relative viability (nuclei count vs DMSO), 5 days (fraction); higher = more cells survive
[1] = compound: Nc1nc2[nH]cc(CCc3ccc(C(=O)N[C@@H](CCC(=O)O)C(=O)O)cc3)c2c(=O)[nH]1 [Pemetrexed] + O=C(c1cc(Cc2n[nH]c(=O)c3ccccc23)ccc1F)N1CCN(C(=O)C2CC2)CC1 [Olaparib] (partner 8 µM)
How it was run: (§1)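 Lung cancer cell lines in 1536-well plates were dosed by pin tool the day after seeding, either with one drug alone or with a fixed anchor-drug dose plus five library-drug doses (not always all listed) in √10 steps. After 5 days, cells were fixed and their nuclei stained in one step (final 0.05% Triton X-100, 1% formaldehyde, 1 ug/ml Hoechst), then counted on 4× images. Relative viability is the nuclei count in treated wells divided by that in vehicle wells. Values are medians of duplicate plates.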

[2] = compound: Nc1nc2[nH]cc(CCc3ccc(C(=O)N[C@@H](CCC(=O)O)C(=O)O)cc3)c2c(=O)[nH]1 [Pemetrexed] + CS(=O)(=O)CCNCc1ccc(-c2ccc3ncnc(Nc4ccc(OCc5cccc(F)c5)c(Cl)c4)c3c2)o1 [Lapatinib] (partner 2 µM)
How it was run: as §1

[3] = compound: Nc1nc2[nH]cc(CCc3ccc(C(=O)N[C@@H](CCC(=O)O)C(=O)O)cc3)c2c(=O)[nH]1 [Pemetrexed] + CCNC(=O)c1noc(-c2cc(C(C)C)c(O)cc2O)c1-c1ccc(CN2CCOCC2)cc1 [Luminespib] (partner 0.01 µM)
How it was run: as §1

[4] = compound: Nc1nc2[nH]cc(CCc3ccc(C(=O)N[C@@H](CCC(=O)O)C(=O)O)cc3)c2c(=O)[nH]1 [Pemetrexed] + C[C@]1(O)C[C@@H](c2nc(-c3ccc4ccc(-c5ccccc5)nc4c3)c3c(N)nccn32)C1 [Linsitinib] (partner 1 µM)
How it was run: as §1

Cell Line	relative viability ([1]; first compound 0.002 µM)	relative viability ([1]; first compound 0.006325 µM)	relative viability ([1]; first compound 0.02 µM)	relative viability ([1]; first compound 0.06325 µM)	relative viability ([1]; first compound 0.2 µM)	relative viability ([2]; first compound 0.002 µM)	relative viability ([2]; first compound 0.006325 µM)	relative viability ([2]; first compound 0.02 µM)	relative viability ([2]; first compound 0.06325 µM)	relative viability ([2]; first compound 0.2 µM)	relative viability ([3]; first compound 0.002 µM)	relative viability ([3]; first compound 0.006325 µM)	relative viability ([3]; first compound 0.02 µM)	relative viability ([3]; first compound 0.06325 µM)	relative viability ([3]; first compound 0.2 µM)	relative viability ([4]; first compound 0.002 µM)	relative viability ([4]; first compound 0.006325 µM)	relative viability ([4]; first compound 0.02 µM)	relative viability ([4]; first compound 0.06325 µM)	relative viability ([4]; first compound 0.2 µM)
LU99A	0.246	0.245	0.302	0.28	0.244	0.926	0.909	0.991	0.97	0.744	0.264	0.233	0.318	0.261	0.19	0.501	0.496	0.634	0.44	0.345
SW 1573	0.477	0.45	0.472	0.423	0.43	1.12	1.11	1.19	1.07	1.12	0.285	0.443	0.249	0.125	0.176	0.794	0.761	0.7	0.752	0.837
COR-L23	0.28	0.406	0.36	0.253	0.152	0.853	0.815	1.05	0.365	0.192	0.639	0.63	0.771	0.358	0.176	0.839	0.863	1.04	0.294	0.177
NCI-H1755	0.777	0.857	0.875	0.89	0.781	0.808	1	1.03	1.04	0.894	0.421	0.594	0.631	0.415	0.437	0.883	0.966	1.02	0.988	0.951
LOU-NH91	0.864	0.886	0.93	0.819	0.455	0.799	0.792	0.734	0.58	0.514	0.399	0.318	0.374	0.298	0.315	0.888	0.852	0.987	0.688	0.598
EMC-BAC-2	0.455	0.458	0.5	0.493	0.497	0.792	0.777	0.961	0.903	0.888	1.15	1.1	1.11	1.06	1.18	0.541	0.778	0.794	0.826	0.844
NCI-H2023	0.431	0.463	0.456	0.36	0.158	0.292	0.726	1.01	0.66	0.202	0.717	0.656	0.932	0.483	0.227	0.738	0.537	0.693	0.55	0.304
EKVX	0.794	0.796	0.884	0.883	0.499	0.17	0.191	0.194	0.185	0.182	0.968	0.876	0.977	0.816	0.784	0.957	1.03	1.02	0.953	0.718
